According to patent US20250262197A1, “COMPOUNDS AND METHODS FOR TREATING CHEMOTHERAPY-INDUCED PAIN” (priority 2024, published 2025):
Where two headings read alike, the source gives them in different places.

Assays:
[1] = system: oxaliplatin-induced peripheral neuropathy (cold allodynia); assay: Single oral administration in rat model of oxaliplatin-induced peripheral neuropathy, cold allodynia, paw immersion test; assay type: in vivo, male Sprague-Dawley rats; conditions: for percentage of variation of the paw withdrawal latency as compared to the vehicle-treated group: p<0.05
Procedure: Cold allodynia is measured using the cryothermostat. See […]., “Effect of licofelone against mechanical hyperalgesia and cold allodynia in the rat model of incisional pain” Pharmacological Reports 2005(57):380-384. […] Cheng, X., et al., “Herbal Medicine AC591 Prevents oxaliplatin-Induced Peripheral Neuropathy in Animal Model and Cancer Patients” Frontiers in Pharmacology, 2017(8):344. This model is useful to evaluate the analgesic effects of new compounds on oxaliplatin-induced chronic painful symptoms. Cold allodynia was measured using the paw immersion test. See Singh, supra. In this test, the latency of hindpaw withdrawal was measured after immersion of the hindpaw in the cryothermostat with a temperature fixed at 10° C. (±0.5° C.). […] On day zero (D0), latency of hindpaw withdrawal was measured on both paws using the cryothermostat (Baseline pre-induction). […] Sixty minutes later, the latency of hindpaw withdrawal was measured on both paws using the cryothermostat. […] Doses are expressed in terms of free active substance. […] On D0, latency of hindpaw withdrawal was measured on both paws using the cryothermostat to obtain a preinduction baseline preinduction. […] Sixty minutes later, the latency of hindpaw withdrawal was measured on both paws using the cryothermostat. […] Rats were sacrificed at the end of the experiment by CO2 inhalation pending subsequent removal by a certified company. Results were expressed as: 1) the paw withdrawal latency (mean±s.e.m.) in seconds for each group, calculated from individual paw withdrawal latency; and 2) the percentage of variation of the paw withdrawal latency calculated from the mean value of the vehicle-treated group. To determine a statistical effect of the test substance and the reference substance, data were analyzed by a non-parametrical test. The significance level was p<0.05.

[2] = system: oxaliplatin-induced peripheral neuropathy (cold allodynia); assay: Repeated daily oral administration in rat model of oxaliplatin-induced peripheral neuropathy, cold allodynia, paw immersion test; assay type: in vivo, male Sprague-Dawley rats
Procedure: Cold allodynia is measured using the cryothermostat. See Singh, V. P., Kulkarni, S. K., “Effect of licofelone against mechanical hyperalgesia and cold allodynia in the rat model of incisional pain” Pharmacological Reports 2005(57):380-384.
Cold allodynia was measured using the paw immersion test. See Singh, supra. In this test, the latency of hindpaw withdrawal was measured after immersion of the hindpaw in the cryothermostat with a temperature fixed at 10° C. (±0.5° C.).
Duloxetine was used as a reference to validate the assay.
On D-3, latency of hindpaw withdrawal was measured on both paws using the cryothermostat to obtain a pre-induction and pre-treatment baseline. […] The first administration of vehicle and Compound A (groups 1 to 4) was done on D-3, then vehicle and Compound A were daily orally administered until D18 (n=22 repeated treatments). […] On the testing days (D4, D11, and D18), latency of hindpaw withdrawal was measured on both paws using the cryothermostat to obtain a baseline. Duloxetine was then orally administered at the same time as vehicle and Compound A at time T0. Sixty minutes later, the latency of hindpaw withdrawal was measured.
Vehicle (10% Ethanol/40% PEG 400/15% Tween 80 in sterile water) and Compound A were orally administered at 3 ml/kg. Duloxetine was orally administered at 10 ml/kg. Dosing and testing were performed in a random order by a blinded experimenter with the exception of sham animals and the duloxetine-treated group. Doses are expressed in terms of free active substance.
On D-3, the latency of hindpaw withdrawal was measured on both paws using the cryothermostat to obtain preinduction and pretreatment baselines.
The first administration of vehicle and Compound A (group 1 to 4) was done on D-3 then vehicle and Compound A were daily orally administered until D18 (n=22 repeated treatments).
On the testing days (D4, D11 and D18), latency of hindpaw withdrawal was measured on both paws using the cryothermostat (baseline) then duloxetine was orally administered at the same time than vehicle and Compound A (T0) and 60 minutes later, the latency of hindpaw withdrawal was measured.
Results were expressed as: 1) the paw withdrawal latency (mean±s.e.m.) in seconds for each group, calculated from individual paw withdrawal latency; and 2) the percentage of variation of the paw withdrawal latency calculated from the mean value of the vehicle-treated group. To determine a statistical effect of the test substance and the reference substance, data were analyzed by a non-parametrical test. The significance level was p<0.05.

[3] = system: patients receiving oxaliplatin; conditions: cited from earlier work

## CC(C)C[C@](C)(N)COc1ccc(-c2ccnc(C(F)F)c2)nc1C(F)F [Compound A, ((S)-1-((2′,6-bis (difluoromethyl)-[2,4′-bipyridin]-5-yl)oxy)-2,4-dimethylpentan-2-aminiumdihydrogen phosphate]
[1]; 10 mg/kg p.o., 60 minutes post-treatment
  increase in paw withdrawal latency as compared to the vehicle-treated group: did not show a statistically significant increase
[1]; 30 mg/kg p.o., week 3, 60 minutes post-treatment
  percentage of variation of the paw withdrawal latency as compared to the vehicle-treated group: +35%
[2]; daily oral administrations at 3 mg/kg
  increase in the paw withdrawal latency as compared to the vehicle-treated group: did not show a statistically significant increase
[2]; daily p.o. 30 mg/kg then 10 mg/kg, week 2, baseline (before the day's dose), ns
  percentage of variation of the paw withdrawal latency as compared to the vehicle-treated group: +25%
[2]; daily p.o. 30 mg/kg then 10 mg/kg, week 3, 60 minutes after the administration, vehicle 6.7±0.6 sec, p<0.05
  paw withdrawal latency (mean±s.e.m.): 10.2 ± 0.8 s
[2]; daily p.o. 30 mg/kg then 10 mg/kg, week 3, baseline (before the day's dose), p<0.05
  percentage of variation of the paw withdrawal latency as compared to the vehicle-treated group: +43%

## CNCC[C@H](Oc1cccc2ccccc12)c1cccs1 [Duloxetine]
[1]; 100 mg/kg p.o., week 2, 60 minutes post-treatment
  percentage of variation of the paw withdrawal latency as compared to the vehicle-treated group: +42%
[1]; 100 mg/kg p.o., week 3, 60 minutes post-treatment
  percentage of variation of the paw withdrawal latency as compared to the vehicle-treated group: +74%
[2]; 100 mg/kg p.o. on testing day, week 2, 60 minutes after treatment, p<0.01
  percentage of variation of the paw withdrawal latency as compared to the vehicle-treated group: +33%
[2]; 100 mg/kg p.o. on testing day, week 3, 60 minutes after treatment, not significant
  increase in the paw withdrawal latency as compared to the pre-drug baseline of the corresponding group: +50%
[2]; 100 mg/kg p.o., week 3, 60 minutes after treatment, pre-drug baseline of the group 6.3±0.3 sec
  paw withdrawal latency (mean±s.e.m.): 9.4 ± 0.7 s

## O=C1[O][Pt]2([NH][C@@H]3CCCC[C@H]3[NH]2)[O]C1=O [oxaliplatin]
[3]; after one month of chemotherapy
  prevalence of CIPN in patients receiving oxaliplatin: approximately 68%
[3]; at six months or more
  prevalence of CIPN in patients receiving oxaliplatin: 30%
[3]; at three months
  prevalence of CIPN in patients receiving oxaliplatin: 60%
[3]; chronic neuropathic pain
  patients who took oxaliplatin reporting long-lasting neuropathic symptoms: Approximately 60%
